For test [1], the system named is pancreatic tumor-bearing mice. In words: Orthotopic pancreatic cancer model (KPC cells in C57BL/6 mice). Format: in vivo. As to conditions: aggressive orthotopic PDA model, 15 mg/kg oral of each drug. The protocol:
Cell line derived from KrasG12D;Trp53R^872H;Pdx1-Cre (KPC) mice were orthotopically implanted into the head of the pancreas after 35 passages. Based on the mice background from where the cell lines were generated, 1×10^6 cells were injected in C57BL/6 mice. Throughout the experiment, animals were provided with food and water ad libitum and subjected to a 12-h dark/light cycle. Animal studies were performed in accordance with the U.S. Public Health Service “Guidelines for the Care and Use of Laboratory Animals” (IACUC). After euthanization, pancreatic tumors were dissected out, weighed and single cell suspensions were prepared for flow cytometry analysis.

In a further test the test system is ID8 ovarian cancer. The test is described as follows: ID8 syngeneic orthotropic ovarian cancer murine model. Format: in vivo, mice. As to conditions: 15 mg/kg/BID given orally. The text has this: Human ovarian cancer models, including the ID8 syngeneic orthotropic ovarian cancer model and other animal models, are described in Fong and Kakar, J. Ovarian Res. 2009, 2, 12; Greenaway et al., Gynecol. Oncol. 2008, 108, 385-94; Urzua et al., Tumour Biol. 2005, 26, 236-44; Janat-Amsbury et al., Anticancer Res. 2006, 26, 3223-28; Janat-Amsbury et al., Anticancer Res. 2006, 26, 2785-89. […] The results of the study are shown in FIG. 42, FIG. 43, FIG. 44, FIG. 45, FIG. 46, FIG. 47, FIG. 48, and FIG. 49.

Test [2] deals with KPC derived mouse pancreatic cancer cells. The test is described as follows: KPC derived mouse pancreatic cancer model, tumor infiltrating MDSCs and TAMs. The test is classed as in vivo. The settings on record: 15 mg/kg/BID given orally. The procedure: In this study, KPC derived mouse pancreatic cancer cells (KrasG12D;Trp53R^872H;Pdx1-Cre) were injected into the pancreases.
Single cell suspensions from tumor samples. Mouse tumor tissue was collected and stored in PBS/0.1% soybean trypsin inhibitor prior to enzymatic dissociation. Samples were finely minced with a scissors and mouse tissue was transferred into DMEM containing 1.0 mg/ml collagenase IV (Gibco), 0.1% soybean trypsin inhibitor, and 50 U/ml DNase (Roche) and incubated at 37 C for 30 min. with constant stirring while human tissue was digested in 2.0 mg/ml collagenase IV, 1.0 mg/ml hyluronidase, 0.1% soybean trypsin inhibitor, and 50 U/ml DNase for 45 minutes. Suspensions were filtered through a 100 micron filter and washed with FACS buffer (PBS/0.5% BSA/2.0 mM EDTA) prior to staining. Two million total cells were stained with antibodies as indicated. Intracellular detection of FoxP3 was achieved following permeabilization with BD Perm Buffer III (BD Biosciences) and eBioscience Fix/Perm respectively. Following surface staining, samples were acquired on a BD Fortessa and analyzed using FlowJo (Treestar) software.

For the next test, the system named is human platelets, GPVI. In words: GPVI platelet aggregation (Convulxin-induced). Format: cell-based. As to conditions: CVX-induced, FIG. 56 and FIG. 57. The procedure: GPVI platelet aggregation was measured for Formula (XVIII) and Formula XX-A (ibrutinib). Blood was obtained from untreated humans, and platelets were purified from […] by centrifugation. Cells were resuspended to a final concentration of […] in buffer containing 145 mmol/L NaCl, 10 mmol/L HEPES, 0.5 mmol/L Na2HPO4, 5 mmol/L KCl, 2 mmol/L MgCl2, 1 mmol/L CaCl2, and 0.1% glucose, at pH 7.4. Stock solutions of […] were prepared on the day of experimentation and added to platelet suspensions 5 minutes (37° C., 1200 rpm) before the induction of aggregation. Aggregation was assessed with a Chronolog Lumi-Aggregometer (model 540 VS; Chronolog, Havertown, Pa.) and permitted to proceed for 6 minutes after the addition of agonist. The results are reported as maximum percent change in light transmittance from baseline with platelet buffer used as a reference.
In FIG. 57, the results of CVX-induced (250 ng/mL) human platelet aggregation results before and 15 min after administration of the BTK inhibitors to 6 healthy individuals are shown.

For a further test, the system named is canine B cell lymphoma. In words: Veterinary clinical trial in companion dogs with lymphoma. Format: in vivo. The settings on record: Arm 1 monotherapy, Arm 2 combination. The protocol:
Enrollment has completed for Arm 1 and is ongoing for Arm 2.
Intra-subject dose escalation was allowed. Six of the 11 dogs that initiated at 2.5 or 5 mg/kg once daily were escalated and completed the study with dosages of 10 mg/kg twice daily. Among all the dose cohorts, 8 dogs had shrinkage of target lesions >20%; the best tumor responses were between 45-49% reduction in the sum of target lesions in two dogs.

The test system of test [3] is human platelet-mediated thrombosis. In words: In vivo human thrombus formation in the VWF HA1 mice model (laser injury). As to conditions: human platelets preincubated with BTK inhibitor (0.1, 0.5 or 1 μM) 30 min; laser-induced injury in VWF HA1 mice.
Experimental: Purified human platelets were preincubated with various concentrations of the BTK inhibitors (0.1 μM, 0.5 μM, or 1 μM) or DMSO and then administered to VWF HA1 mice, followed by laser-induced thrombus formation.
The objective of this study was to evaluate in vivo thrombus formation in the presence of BTK inhibitors.

As for `CC#CC(=O)N1CCC[C@H]1c1nc(-c2ccc(C(=O)Nc3ccccn3)cc2)c2c(N)nccn12` [Formula (XVIII), (S)-4-(8-amino-3-(1-(but-2-ynoyl)pyrrolidin-2-yl)imidazo[1,5-a]pyrazin-1-yl)-N-(pyridin-2-yl)benzamide], the Tumor burden result in test [1] is recorded as “significantly reduced”. In test [1] (flow cytometry), the Immature myeloid infiltrate result is given as “decreased”, the “Number of immunosuppressive Tregs” value was “reduced” and the “Number of tumor associated macrophages” value is “reduced”. In addition, in the test with ID8 ovarian cancer (tumor-bearing mice), the “CD8+ T cells” value is “increase”, the “Immunosuppressive tumor associated Tregs” value is recorded as “significant reduction” and the Immunosuppressive tumor-associated lymphocytes result is listed as “significant reduction”. Also, the “Immunosuppressive B cells” value with ID8 ovarian cancer (tumor-bearing mice, total B cells and Bregs) is on record as “significant reduction”. In the test with ID8 ovarian cancer (vs vehicle), the “ID8 ovarian cancer growth” value is “impairs”. The Tumor burden result in test [2] is on record as “reduction”. Moreover, the “Inhibition of GPVI platelet aggregation” value in the test on human platelets, GPVI is “does not”. Also, the “Complete responses (CR)” value in the test with canine B cell lymphoma is reported as “not observed”. The “Median time on study (all subjects)” value with canine B cell lymphoma (preliminary) came out at 24 days.
Consider `C=CC(=O)N1CCC[C@@H](n2nc(-c3ccc(Oc4ccccc4)cc3)c3c(N)ncnc32)C1` [Formula XX-A, 1-[(3R)-3-[4-amino-3-(4-phenoxyphenyl)-1H-pyrazolo[3,4-d]pyrimidin-1-yl]piperidin-1-yl]prop-2-en-1-one, reference compound], for which the “Effect on human platelet-mediated thrombus formation” value in test [3] is “able to limit this process”. Besides, the “Inhibition of GPVI platelet aggregation” value with human platelets, GPVI was “significantly inhibits”.
On to `C=CC(=O)Nc1cccc(Nc2nc(Nc3ccc(OCCOC)cc3)ncc2F)c1` [Formula XXVII, N-(3-((5-fluoro-2-((4-(2-methoxyethoxy)phenyl)amino)pyrimidin-4-yl)amino)phenyl)acrylamide], for which, in test [3], the “Effect on human platelet-mediated thrombus formation” value is recorded as “effect similar to Formula XX-A (ibrutinib)”.

These data come from patent publication US10328080B2, “Therapeutic combination of PI3K inhibitor and a BTK inhibitor” (Acerta Pharma B.V., priority 2013, dated 2019).
